What follows are compounds tested against T1, rat intestinal maltase (assay: maltose hydrolysis, glucose assay kit, Lineweaver-Burk with secondary replots). Conditions: mixed inhibition; maltose 0.5-8 mM; pH 6.9, 37 °C.
T1 construct: gene Mgam; native, crude extract of rat intestinal acetone powder (Sigma), not purified; maltose-hydrolysing activity, shared by maltase-glucoamylase and sucrase-isomaltase
Assay type: biochemical
Text: maltose hydrolysis, glucose assay kit, Lineweaver-Burk with secondary replots on rat intestinal maltase

Structure (SMILES)	Ki [mM]
CC(C)(C)c1cc(SC2OCC3C(c4ccc5c(c4)OCO5)OCC23)cc(C(C)(C)C)c1O (stereo not drawn) [2α-7o]	0.03

The compounds below were run against T1, rat intestinal maltase (assay: maltose hydrolysis, glucose assay kit, absorbance at […] nm). Conditions: maltose (2 mM stock), 0.1 M phosphate pH 6.9, 37 °C, 10 min; read-out: α-Glucosidase Inhibitory Effect (IC50, mM) ^a / Maltase.
Assay type: biochemical

Structure (SMILES)	IC50 [mM]
CCCCCCCCO[C@H]1OC[C@H]2[C@@H]1CO[C@@H]2c1ccc2c(c1)OCO2 [2α-9b]	> 30
CC(C)(C)c1cc(SC2OCC3C(c4ccc5c(c4)OCO5)OCC23)cc(C(C)(C)C)c1O (stereo not drawn) [2α-7o]	11.8 ± 0.3
CCCCCCCCS[C@H]1OC[C@H]2[C@@H]1CO[C@@H]2c1ccc2c(c1)OCO2 [2α-7a]	> 30
c1cc2c(cc1[C@H]1OC[C@H]3[C@@H]1CO[C@@H]3SC1CCCCC1)OCO2 [2α-7c]	> 30
C[C@H]1O[C@H](O[C@H]2[C@H](O)[C@@H](O)[C@@H](O[C@H]3[C@H](O)[C@@H](O)C(O)O[C@@H]3CO)O[C@@H]2CO)[C@H](O)[C@@H](O)[C@@H]1N[C@H]1C=C(CO)[C@@H](O)[C@H](O)[C@H]1O (stereo partly drawn) [acarbose, reference compound]	1.4 ± 0.2
Oc1ccc(S[C@@H]2OC[C@H]3[C@@H]2CO[C@@H]3c2ccc3c(c2)OCO3)cc1 [2β-7f]	14.2 ± 0.8
OCCCCCCS[C@H]1OC[C@H]2[C@@H]1CO[C@@H]2c1ccc2c(c1)OCO2 [2α-7b]	> 30
Oc1ccc(S[C@H]2OC[C@H]3[C@@H]2CO[C@@H]3c2ccc3c(c2)OCO3)cc1 [2α-7f]	14.7 ± 1

From paper PMC9785863, “Thioether and Ether Furofuran Lignans: Semisynthesis, Reaction Mechanism, and Inhibitory Effect against α-Glucosidase and Free Radicals” (Molecules, 2022)
